Test results taken from patent US20190293657A1, “PEPTIDE, FLUORESCENT PROBE COMPRISING THE SAME, AND PREPARATION METHOD THEREOF” (Singulprobe Nanjing Biotechnology Co., Ltd, priority 2017, published 2019).

Tested on: lysosome (U2OS cells)
Experiment: Structural illumination microscopy (N-SIM) super-resolution imaging of lysosomes
Type: cell-based
Settings: FIG. 8
Text: Super-resolution imaging by structural illumination microscopy: super-resolution microscope N-SIM (Nikon, Japan) was employed. The maximum excitation wavelength of Alexa Fluor 647 was 650 nm and the maximum emission wavelength was 665 nm; the maximum excitation wavelength of LysoTracker Red was 577 nm and the maximum emission wavelength of LysoTracker Red was 590 nm; the maximum excitation wavelength of Atto 565 was 563 nm and the maximum emission wavelength of Atto 565 was 592 nm; the maximum excitation wavelength of Atto 488 was 501 nm and the maximum emission wavelength was 523 nm. A sample was photographed using a 2D-SIM mode, one SIM result was calculated from 9 original images (three angles, three phases), and the exposure time of each original image was 30 ms. Considering quick movement ability of a lysosome in living cells, single-color imaging interval time was set as 1 s so as to continuously photograph cells at above 300 frames. After the capturing was completed, the average time interval among various SIM images was about 1.15 s. […]
Based on a time-lapsed SIM imaging, take the center of the lysosome as a reference, the coordinates of lysosomes were recorded using ImageJ software, and trace charts of 101 lysosomes in four U2OS cells on the confocal surface were drawn using MATLAB (FIGS. 6A-6H). […]

## CN(C)CCNC(=O)CCc1ccc2n1[B-](F)(F)[N+]1=C(c3ccc[nH]3)C=CC1=C2 [LysoTracker Red]
  background in structural illumination super-resolution imaging: uneven background of LysoTracker Red was very obvious
